Measurements: patent publication US20240358692A1, “TREATMENT OF SCLERODERMA” (Aisa Pharma, Inc., priority 2023, published 2024)
Entries after “also recorded” stand apart in the source; their conditions may differ. Like-named read-outs stand apart in the source and are kept apart here.

Tests used:
participants with SSc-RP [1] = format: in vivo
Source text: Treatment-emergent AEs (TEAEs) are defined as AEs that occur or worsen after the dose of study drug. If the timing of the start of an AE could not be determined unambiguously from the start or end dates provided, it will be assumed to be a TEAE. An AE is considered related if the relationship to either of the study drug has been indicated as possibly or probably or definite related by the investigator. An AE leading to study withdrawal is defined as an AE that cause a subject early terminated from the study. AEs will be identified as emerging in the following parts: • TEAEs for Part A will be those that started during Part A (i.e., from the first dose in Part A to end of follow up of Part A) • TEAEs for Part B will be those that started during Part B (i.e., from the first dose in Part B to end of follow-up of Part B).
In this study, AEs and SAEs were reported for all participants from the time of randomization until the completion of the Follow-up/EOS visit. Adverse events that were ongoing at the EOS visit were marked as Not Recovered/Not resolved on the AE eCRF page (see Section 9.4.4). The Investigator did full AE review during in-clinic visit. All spontaneously volunteered and enquired for, as well as observed AEs, were recorded in the participant's medical records and the eCRF.
Severity of AEs were graded by the Investigator as one of: • Mild (Grade 1): A type of AE that is usually transient and may require only minimal treatment or therapeutic intervention.

participants with SSc-RP [2] = test: SHAQ - Visual Analog Scale - Overall Disease Severity; format: in vivo, human
Source text: The standard, validated, patient reported outcome measures tool for SSc patients, the Scleroderma Health Assessment Questionnaire (SHAQ), will be used to assess the participant qualify of life. Details are attached in the Appendix. The participant quality of life will be scored, and a disability index calculated for each questionnaire completed by the patient at Screening and each in-clinic visit. The absolute change in participant quality of life from baseline to the end of each dosing period will be calculated similar to frequency data as before.
The standard, validated, patient reported outcome measures tool for SSc patients, the SHAQ, was collected at the time points specified in the study schedules (FIG. 2 and FIGS. 4A and 4B) to assess the participant's quality of life. The SHAQ included a Raynaud's VAS that will also be reported separately.

[3] = Any Cilnidipine (N = 17), Day 12, PP Population, Part A
[4] = Pooled Cilnidipine 10 mg and Cilnidipine 10 mg + Tadalafil 5 mg, PP, Part A
[5] = Pooled Cilnidipine 20 mg and Cilnidipine 20 mg + Tadalafil 5 mg, PP, Part A
[6] = Pooled Cilnidipine (N = 7), Day 12, Modified ITT Population - Part A
[7] = Pooled Cilnidipine (N = 8), Day 12, PP Population, Part A

## COCCOC(=O)C1=C(C)NC(C)=C(C(=O)OC/C=C/c2ccccc2)C1c1cccc([N+](=O)[O-])c1 (centres unmarked) [Cilnidipine]
Participants with SSc-RP [1]; 10 mg and 20 mg, alone or in combination with tadalafil
  tolerability: well tolerated
Participants with SSc-RP [1]; Cilnidipine 20 mg, HA, mild, n = 8
  Safety: number of AE: 1AE (HA−mild; 1
Participants with SSc-RP [1]; Cilnidipine 20 mg, n = 8
  Safety: withdrawals: 1AE (HA−mild; 1 withdrawal
Participants with SSc-RP [1]; Pooled Cilnidipine, n = 9
  Safety: withdrawals: T); no withdrawals
Participants with SSc-RP [1]; all patients who received any dose of cilnidipine (n=17)
  treatment discontinuations due to intolerance: no treatment discontinuations due to intolerance were reported
Participants with SSc-RP [1]; all patients who received any dose of cilnidipine (n=17), Part A
  incidence of Adverse Events / overall adverse event rate: 17%
Participants with SSc-RP [1]; any Profervia dose
  Adverse effects: 17% Adverse effects in
Participants with SSc-RP [1]; patients treated with cilnidipine, Part A
  severity grade of adverse events: only Grade 1 Adverse Events (AEs) were reported; also recorded: only mild (Grade 1) adverse events occurred
Participants with SSc-RP [1]; summary of data
  Safety: grade of Adverse Events (AEs): Grade 1 Adverse
  Safety: treatment D/Cs (discontinuations): No treatment D/Cs
Participants with SSc-RP [2]; [3]
  SHAQ Visual Analogue Scale - Overall Disease Severity, Change from Baseline, Mean (SD): −0.991 (1.0921)
  SHAQ Visual Analogue Scale - Overall Disease Severity, Change from Baseline, Median: −1.100
  SHAQ Visual Analogue Scale - Overall Disease Severity, In-Clinic Visit (Day 12), Mean (SD): 2.203 (2.1532)
  SHAQ Visual Analogue Scale - Overall Disease Severity, In-Clinic Visit (Day 12), Median: 1.400
  SHAQ Visual Analogue Scale - Overall Disease Severity, Percent Change from Baseline, Mean (SD): −36.33 (43.497) %
  SHAQ Visual Analogue Scale - Overall Disease Severity, Percent Change from Baseline, Median: −42.89%
Participants with SSc-RP [2]; Cilnidipine 20 mg (n = 3), SHAQ, mITT Part A
  % change overall SSc Disease Severity: −63% (i.e.,
Participants with SSc-RP [2]; Cilnidipine 20 mg (n = 3), minus = improvement, Table A*
  SHAQ Overall Scleroderma Disease Severity, mean % change: −63%
Participants with SSc-RP [2]; [4]
  SHAQ VAS Overall Disease Severity, Change from Baseline, Max: 1.90
  SHAQ VAS Overall Disease Severity, Change from Baseline, Mean (SD): −0.606 (1.1663)
  SHAQ VAS Overall Disease Severity, Change from Baseline, Min: −1.90
  SHAQ VAS Overall Disease Severity, Change from Baseline, Q1: −1.500
  SHAQ VAS Overall Disease Severity, Change from Baseline, Q3: −0.300
  SHAQ VAS Overall Disease Severity, Day 12, Max: 6.00
  SHAQ VAS Overall Disease Severity, Day 12, Min: 0.00
  SHAQ VAS Overall Disease Severity, Day 12, Q1: 0.800
  SHAQ VAS Overall Disease Severity, Day 12, Q3: 3.800
  SHAQ VAS Overall Disease Severity, Percent Change from Baseline, Max: 100.0
  SHAQ VAS Overall Disease Severity, Percent Change from Baseline, Mean (SD): −24.68 (57.343)
  SHAQ VAS Overall Disease Severity, Percent Change from Baseline, Min: −100.0
  SHAQ VAS Overall Disease Severity, Percent Change from Baseline, Q1: −51.01
  SHAQ VAS Overall Disease Severity, Percent Change from Baseline, Q3: −16.76
Participants with SSc-RP [2]; Pooled Cilnidipine 20 mg and Cilnidipine 20 mg + Tadalafil 5 mg (N = 7), Day 12, Modified ITT Population - Part A
  SHAQ Visual Analogue Scale - Overall Disease Severity, Change from Baseline, Median: −1.500
Participants with SSc-RP [2]; Pooled Cilnidipine 20 mg and Cilnidipine 20 mg + Tadalafil 5 mg (N = 7), Modified ITT Population - Part A
  SHAQ Visual Analogue Scale - Overall Disease Severity, In-Clinic Visit (Day 12), Median: 1.200
Participants with SSc-RP [2]; [5]
  SHAQ VAS Overall Disease Severity, Change from Baseline, Max: −0.40
  SHAQ VAS Overall Disease Severity, Change from Baseline, Min: −3.10
  SHAQ VAS Overall Disease Severity, Change from Baseline, Q1: −1.750
  SHAQ VAS Overall Disease Severity, Change from Baseline, Q3: −0.650
  SHAQ VAS Overall Disease Severity, Day 12, Max: 7.30
  SHAQ VAS Overall Disease Severity, Day 12, Median: 1.300
  SHAQ VAS Overall Disease Severity, Day 12, Min: 0.50
  SHAQ VAS Overall Disease Severity, Day 12, Q1: 0.800
  SHAQ VAS Overall Disease Severity, Day 12, Q3: 1.750
  SHAQ VAS Overall Disease Severity, Percent Change from Baseline, Max: −9.9
  SHAQ VAS Overall Disease Severity, Percent Change from Baseline, Min: −76.2
  SHAQ VAS Overall Disease Severity, Percent Change from Baseline, Q1: −64.44
  SHAQ VAS Overall Disease Severity, Percent Change from Baseline, Q3: −36.22
Participants with SSc-RP [2]; [6]
  SHAQ Visual Analogue Scale - Overall Disease Severity, Change from Baseline, Mean: −1.214
  SHAQ Visual Analogue Scale - Overall Disease Severity, Percent Change from Baseline, Mean: −59.80%
  SHAQ Visual Analogue Scale - Overall Disease Severity, Percent Change from Baseline, Median: −55.86%
Participants with SSc-RP [2]; Pooled Cilnidipine (N = 7), Modified ITT Population - Part A
  SHAQ Visual Analogue Scale - Overall Disease Severity, In-Clinic Visit (Day 12), Mean: 1.486
Participants with SSc-RP [2]; [7]
  SHAQ Visual Analogue Scale - Overall Disease Severity, In-Clinic Visit (Day 12), Mean (SD): 1.475 (1.6430)
  SHAQ Visual Analogue Scale - Overall Disease Severity, In-Clinic Visit (Day 12), Median: 1.300
